In patent publication US4049808A, “2-Phenyl ethyl morpholine compounds” (Imperial Chemical Industries Limited, priority 1974, dated 1977):

What was measured:
Oral LD50 in mice = details: mouse, in vivo
[1] = system: reserpine-induced hypothermia; experiment: Reversal of reserpine-induced hypothermia in mice (RHL test); type: in vivo; details: reserpine 2 mg./kg. s.c., T0 to T4 (4 hours)
Experimental: The reversal of reserpine-induced hypothermia, known as the RHL test, is carried out as follows:
Mice are kept in a constant temperature room maintained at 21 ± 1° C. Each member of groups of 4 mice is given reserpine (2 mg. of base per kg. bodyweight, given subcutaneously as the acetate). Seventeen hours later the oesophageal temperature (T0) of each mouse is recorded by means of an orally-inserted probe coupled to an electric thermometer which is calibrated in degrees Centrigrade and which can be read to 0.1° C. Immediately after the temperature measurement the mice are dosed orally with the test compound, or with imipramine, each mouse in a group of 4 being given the same substance, and the oesophageal temperatures are again recorded after 4 hours (T4). The compound under test is dosed at serial dilutions, e.g. 100, 30, 10, 3, 1, 0.3, 0.1 mg./kg. Imipramine is used as the control. […] At 1 mg./kg. it produces an average rise of 1.7° C. A test compound which at a certain does level gives a rise in temperature equal to or greater than that given by 1 mg./kg. of imipramine, dosed to a different set of mice on the same day, is adjudged "active" at that dose.

Cc1ccccc1CCC1CNCCO1 (stereo not drawn) [2-[β-(2-methylphenyl)ethyl]morpholine]
LD50 (Oral LD50 in mice): 550 mg/kg

c1ccc(Oc2ccccc2CCC2CNCCO2)cc1 (stereo not drawn) [2-[β-(2-phenoxyphenyl)ethyl]morpholine]
LD50 (Oral LD50 in mice): 1000 mg/kg

CN(C)CCCN1c2ccccc2CCc2ccccc21 [imipramine]
average rise in the temperature of a reserpinised mouse ([1]; imipramine 1 mg./kg. oral): 1.7 °C
average rise in the temperature of a reserpinised mouse ([1]; imipramine 3 mg./kg. oral): 3 °C
